Values of other authors in paper PMC3290704 (Journal of the American Chemical Society, 2012).

Experiments:
TAZ2 from p300 = conditions: NMR structure of complex
TAZ2 = conditions: fluorescence titrations

Kd (TAZ2) [µM] | Substance | TAZ2 residues in direct hydrophobic contact with p53 (TAZ2 from p300) | p53 residues forming an α-helix upon binding (TAZ2 from p300)
 | p53(2–39): p53(2–39) peptide in NMR structure with TAZ2 from p300 | Val1802, Leu1823, and Leu1826 of TAZ2 have direct hydrophobic contacts with p53 | residues 17 ~ 24 of the p53 AD1 subdomain form an α-helix upon binding
0.01 to 0.02 | p53(13–61): p53(13–61), literature TAZ2 binder by fluorescence titration |  | 
